Test system: anesthetized open-chest dogs
Experiment: Hemodynamics of anesthetized open-chest dogs, intravenous infusion
Assay type: in vivo, mongrel dogs
Protocol: The animals were anesthetized by intravenous injection of 30 mg/kg sodium pentobarbital, tracheally intubated, and mechanically ventilated with positive air pressure. Left thoracotomy was performed through the fourth intercostal space and the heart was suspended in a pericardial cradle, the aortic root was isolated and a probe of blood flow meter (12 or 14 mm in diameter) was fixed to measure the aortic blood flow as a representation of cardiac output (CO), the circumflex branch of left coronary artery was isolated and a probe of blood flow meter (2 or 2.5 mm in diameter) was fixed to measure the coronary blood flow (CBF). A polyethylene catheter filled with heparin physiological saline was inserted through cardiac apex into the left ventricle to measure the left ventricular pressure (LVP) and left ventricular end-diastolic pressure (LVEDP), Peak positive and peak negative first derivatives of the LVP (+ LVdp/dt and − LVdp/dt) were calculated with the Acknowledge software. The systolic blood pressure (SBP), diastolic blood pressure (DBP) and mean arterial pressure (MAP) were measured by polyethylene catheter via the femoral artery, ECG □ was measured by a AC-601G ECG amplifier. The above-mentioned analog signal was input into a data acquisition workstation (MP100, BIOPAC Systems, USA) to a computer running Acknowledge (version 3.7.1).
After surgery, various indexes before administration were recorded until the indexes were stable, and then intravenous infusion administration was conducted. Thirty dogs were divided into five groups (six dogs in each group), the experiment groups were given 0.15, 0.3, 0.6 mg/kg of ASP-[…] respectively, the normal control group was given 1 ml/kg of solvent, and the positive control group was given 0.3 mg/kg of astragaloside IV. The delivery volumes were 15 ml for each dog was and the delivery velocity was 1 ml/min. The indexes were recorded at 5, 10, 15, 20, 30, 45, 60, 90 and 120 mins after drug administration. At the end of experiment, the hearts were excised and weighted. The myocardial blood flow for per hectogram (CF), coronary resistance (CR), cardiac index (CI), left ventricular work (LVW) and total peripheral resistance (TPR) were calculated according to the following formulae: CF=CBF×[…]/heart weight CR=MAP/CF CI=CO/0.11×(body weight)^2/3 LVW=CO×(MAP−5)×1.052×0.0136 TPR=MAP×79.92/CO
Data are expressed as mean±SD ( x±s), the paired t-test was used to compare the significance between before and after administration, the unpaired t-test was adopted for comparison between groups.

[1] = 0.3 mg/kg iv, 45 min after administration
[2] = 0.3 mg/kg iv, 60 min after administration
[3] = 0.3 mg/kg iv, 90 min after administration
[4] = 0.3 mg/kg iv, 120 min after administration
[5] = 0.3 mg/kg iv, before administration
[6] = 0.6 mg/kg iv, 5 min after administration
[7] = 0.6 mg/kg iv, 10 min after administration
[8] = 0.6 mg/kg iv, 15 min after administration

## CC(C)(O)[C@@H]1CC[C@](C)([C@H]2[C@@H](O)C[C@@]3(C)C4C[C@H](OC5OC(CO)C(O)C(O)C5O)C5C(C)(C)[C@@H](O)CC[C@@]56C[C@@]46CC[C@]23C)O1 (stereo partly drawn) [CMG, Cycloastragenol-6-O-β-D-glucoside]
0.3 mg/kg iv, 30 min after administration
  −dp/dt change vs before administration: (36 ± 97) mmHg/s
[1]
  CF: 51.7 ± 23.5 ml/min/100 g
  CF change vs before administration: (1.6 ± 6.8) ml/min/100 g
  CI: 1.85 ± 0.84 L/min/m^2
  CI change vs before administration: (−0.13 ± 0.13) L/min/m^2
  CO: 1.03 ± 0.39 L/min
  CO change vs before administration: (−0.07 ± 0.07) L/min
  CR: 1.65 ± 0.92 mmHg/ml/min/100 g
  CR change vs before administration: (0.11 ± 0.29) mmHg/ml/min/100 g
  LVEDP: 0.5 ± 2.3 mmHg
  LVEDP change vs before administration: (−1.28 ± 0.75) mmHg
  LVP: 98 ± 22 mmHg
  LVP change vs before administration: (−4.8 ± 5.5) mmHg
  LVW: 1.00 ± 0.48 kg · m
  LVW change vs before administration: (−0.02 ± 0.11) kg · m
  TPR: 6068 ± 2331 dyn · s/cm^5
  TPR change vs before administration: (768 ± 937) dyn · s/cm^5
  dp/dt: 1285 ± 453 mmHg/s
  dp/dt change vs before administration: (24 ± 83) mmHg/s
  −dp/dt: −878 ± 266 mmHg/s
  −dp/dt change vs before administration: (43 ± 117) mmHg/s
[2]
  CF: 51.7 ± 23.9 ml/min/100 g
  CF change vs before administration: (1.6 ± 6.8) ml/min/100 g
  CI: 1.80 ± 0.93 L/min/m^2
  CI change vs before administration: (−0.19 ± 0.42) L/min/m^2
  CO: 1.00 ± 0.45 L/min
  CO change vs before administration: (−0.10 ± 0.25) L/min
  CR: 1.54 ± 0.75 mmHg/ml/min/100 g
  CR change vs before administration: (0.01 ± 0.19) mmHg/ml/min/100 g
  LVEDP: 0.8 ± 2.8 mmHg
  LVEDP change vs before administration: (−0.98 ± 0.88) mmHg
  LVP: 98 ± 22 mmHg
  LVP change vs before administration: (−5.7 ± 6.0) mmHg
  LVW: 0.90 ± 0.43 kg · m
  LVW change vs before administration: (−0.12 ± 0.26) kg · m
  TPR: 6625 ± 4423 dyn · s/cm^5
  TPR change vs before administration: (1326 ± 3485) dyn · s/cm^5
  dp/dt: 1272 ± 479 mmHg/s
  dp/dt change vs before administration: (11 ± 94) mmHg/s
  −dp/dt: −833 ± 236 mmHg/s
  −dp/dt change vs before administration: (88 ± 199) mmHg/s
[3]
  CF: 51.1 ± 19.1 ml/min/100 g
  CF change vs before administration: (1.0 ± 4.7) ml/min/100 g
  CI: 1.74 ± 0.98 L/min/m^2
  CI change vs before administration: (−0.25 ± 0.42) L/min/m^2
  CO: 0.96 ± 0.47 L/min
  CO change vs before administration: (−0.14 ± 0.24) L/min
  CR: 1.51 ± 0.66 mmHg/ml/min/100 g
  CR change vs before administration: (−0.02 ± 0.16) mmHg/ml/min/100 g
  LVEDP: 0.9 ± 2.6 mmHg
  LVEDP change vs before administration: (−0.83 ± 0.72) mmHg
  LVP: 99 ± 20 mmHg
  LVP change vs before administration: (−4.5 ± 7.0) mmHg
  LVW: 0.90 ± 0.53 kg · m
  LVW change vs before administration: (−0.12 ± 0.32) kg · m
  TPR: 7000 ± 4452 dyn · s/cm^5
  TPR change vs before administration: (1701 ± 3472 dyn · s/cm^5
  dp/dt: 1242 ± 437 mmHg/s
  dp/dt change vs before administration: (−19 ± 39) mmHg/s
  −dp/dt: −909 ± 312 mmHg/s
  −dp/dt change vs before administration: (12 ± 172) mmHg/s
[4]
  CF: 50.7 ± 20.1 ml/min/100 g
  CF change vs before administration: (0.5 ± 2.0) ml/min/100 g
  CI: 1.81 ± 1.07 L/min/m^2
  CI change vs before administration: (−0.17 ± 0.52) L/min/m^2
  CO: 1.00 ± 0.52 L/min
  CO change vs before administration: (−0.10 ± 0.30) L/min
  CR: 1.60 ± 0.82 mmHg/ml/min/100 g
  CR change vs before administration: (0.07 ± 0.21) mmHg/ml/min/100 g
  LVEDP: 1.0 ± 2.1 mmHg
  LVEDP change vs before administration: (−0.71 ± 0.45) mmHg
  LVP: 100 ± 23 mmHg
  LVP change vs before administration: (−3.5 ± 10.3) mmHg
  LVW: 0.94 ± 0.54 kg · m
  LVW change vs before administration: (−0.08 ± 0.37) kg · m
  TPR: 7219 ± 5040 dyn · s/cm^5
  TPR change vs before administration: (1920 ± 3990) dyn · s/cm^5
  dp/dt: 1309 ± 433 mmHg/s
  dp/dt change vs before administration: (48 ± 92) mmHg/s
  −dp/dt: −894 ± 278 mmHg/s
  −dp/dt change vs before administration: (27 ± 63) mmHg/s
0.3 mg/kg iv, at 5-10 min after administration
  +LVdp/dtmax maximum increase: 12.0±5.0%
[5]
  CF: 50.2 ± 19.5 ml/min/100 g
  CI: 1.98 ± 0.84 L/min/m^2
  CO: 1.10 ± 0.38 L/min
  CR: 1.53 ± 0.67 mmHg/ml/min/100 g
  LVEDP: 1.7 ± 2.2 mmHg
  LVP: 103 ± 20 mmHg
  LVW: 1.02 ± 0.47 kg · m
  TPR: 5299 ± 1597 dyn · s/cm^5
  dp/dt: 1261 ± 453 mmHg/s
  −dp/dt: −921 ± 311 mmHg/s
0.6 mg/kg iv
  LVEDP maximum decrease: 2.1±0.5 mmHg
[6]
  CF: 51.7 ± 10.5 ml/min/100 g
  CF change vs before administration: (0.5 ± 3.1) ml/min/100 g
  CI: 2.00 ± 0.56 L/min/m^2
  CI change vs before administration: (0.04 ± 0.16) L/min/m^2
  CO: 1.18 ± 0.42 L/min
  CO change vs before administration: (0.03 ± 0.09) L/min
  CR: 1.44 ± 0.39 mmHg/ml/min/100 g
  CR change vs before administration: (0.02 ± 0.08) mmHg/ml/min/100 g
  LVEDP: 1.5 ± 1.6 mmHg
  LVEDP change vs before administration: (−1.17 ± 0.78) mmHg
  LVP: 105 ± 14 mmHg
  LVP change vs before administration: (−1.1 ± 3.5) mmHg
  LVW: 1.11 ± 0.38 kg · m
  LVW change vs before administration: (0.03 ± 0.11) kg · m
  TPR: 5474 ± 2219 dyn · s/cm^5
  TPR change vs before administration: (−32 ± 572) dyn · s/cm^5
  dp/dt: 1186 ± 316 mmHg/s
  dp/dt change vs before administration: (83 ± 55) mmHg/s
  −dp/dt: −850 ± 223 mmHg/s
  −dp/dt change vs before administration: (2 ± 31) mmHg/s
[7]
  CF: 51.2 ± 8.4 ml/min/100 g
  CF change vs before administration: (0.0 ± 2.2) ml/min/100 g
  CI: 2.01 ± 0.39 L/min/m^2
  CI change vs before administration: (0.05 ± 0.20) L/min/m^2
  CO: 1.17 ± 0.33 L/min
  CO change vs before administration: (0.02 ± 0.11) L/min
  CR: 1.44 ± 0.40 mmHg/ml/min/100 g
  CR change vs before administration: (0.03 ± 0.12) mmHg/ml/min/100 g
  LVEDP: 0.9 ± 1.6 mmHg
  LVEDP change vs before administration: (−1.74 ± 0.68) mmHg
  LVP: 105 ± 17 mmHg
  LVP change vs before administration: (−1.3 ± 5.0) mmHg
  LVW: 1.11 ± 0.34 kg · m
  LVW change vs before administration: (0.03 ± 0.15) kg · m
  TPR: 5261 ± 1874 dyn · s/cm^5
  TPR change vs before administration: (−246 ± 497) dyn · s/cm^5
  dp/dt: 1198 ± 278 mmHg/s
  dp/dt change vs before administration: (95 ± 70) mmHg/s
  −dp/dt: −857 ± 238 mmHg/s
  −dp/dt change vs before administration: (−4 ± 46) mmHg/s
[8]
  CF: 51.4 ± 8.3 ml/min/100 g
  CF change vs before administration: (0.2 ± 3.7) ml/min/100 g
  CI: 2.05 ± 0.50 L/min/m^2
  CI change vs before administration: (0.09 ± 0.16) L/min/m^2
  CO: 1.20 ± 0.38 L/min
  CO change vs before administration: (0.05 ± 0.09) L/min
  CR: 1.43 ± 0.35 mmHg/ml/min/100 g
  CR change vs before administration: (0.01 ± 0.07) mmHg/ml/min/100 g
  LVEDP: 1.3 ± 1.6 mmHg
  LVEDP change vs before administration: (−1.38 ± 0.51) mmHg
  LVP: 105 ± 17 mmHg
  LVP change vs before administration: (−0.8 ± 4.1) mmHg
  LVW: 1.14 ± 0.41 kg · m

Source: patent publication US8835134B2, “Cycloastragenol monoglucoside, preparation, pharmaceutical composition and application thereof” (Tianjin Institute of Pharmaceutical Research, priority 2007, dated 2014)
